# Test results published in patent publication US10392368B2, “Pyrazolo and triazolo bicyclic compounds as JAK kinase inhibitors” (THERAVANCE BIOPHARMA R&D IP, LLC, priority 2017, dated 2019).
# How the values were obtained:
# JAK1 = molecular target: T1, JAK1 (Homo sapiens, UniProt P23458); test: Biochemical JAK1 kinase assay (LanthaScreen); settings: for Ki: read-out: JAK 1 (pKi) (converted)
# T1 construct: GST; purchased Life Technologies
# Outline: (§1)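 TR-FRET read-out: terbium anti-pSTAT1 (pTyr701) antibody, 2 nM, with 10 mM EDTA quench, emission ratio 520/495 nm. GST-JAK phosphorylates GFP-STAT1 peptide for 1 h at ambient temperature after 1 h compound pre-incubation. pIC50 from dose-response converted to pKi by Cheng-Prusoff.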
# JAK2 = molecular target: T2, JAK2 (Homo sapiens, UniProt O60674); test: Biochemical JAK2 kinase assay (LanthaScreen); settings: for Ki: read-out: JAK 2 (pKi) (converted)
# T2 construct: GST; purchased Life Technologies
# T2 sequence (O60674 whole entry): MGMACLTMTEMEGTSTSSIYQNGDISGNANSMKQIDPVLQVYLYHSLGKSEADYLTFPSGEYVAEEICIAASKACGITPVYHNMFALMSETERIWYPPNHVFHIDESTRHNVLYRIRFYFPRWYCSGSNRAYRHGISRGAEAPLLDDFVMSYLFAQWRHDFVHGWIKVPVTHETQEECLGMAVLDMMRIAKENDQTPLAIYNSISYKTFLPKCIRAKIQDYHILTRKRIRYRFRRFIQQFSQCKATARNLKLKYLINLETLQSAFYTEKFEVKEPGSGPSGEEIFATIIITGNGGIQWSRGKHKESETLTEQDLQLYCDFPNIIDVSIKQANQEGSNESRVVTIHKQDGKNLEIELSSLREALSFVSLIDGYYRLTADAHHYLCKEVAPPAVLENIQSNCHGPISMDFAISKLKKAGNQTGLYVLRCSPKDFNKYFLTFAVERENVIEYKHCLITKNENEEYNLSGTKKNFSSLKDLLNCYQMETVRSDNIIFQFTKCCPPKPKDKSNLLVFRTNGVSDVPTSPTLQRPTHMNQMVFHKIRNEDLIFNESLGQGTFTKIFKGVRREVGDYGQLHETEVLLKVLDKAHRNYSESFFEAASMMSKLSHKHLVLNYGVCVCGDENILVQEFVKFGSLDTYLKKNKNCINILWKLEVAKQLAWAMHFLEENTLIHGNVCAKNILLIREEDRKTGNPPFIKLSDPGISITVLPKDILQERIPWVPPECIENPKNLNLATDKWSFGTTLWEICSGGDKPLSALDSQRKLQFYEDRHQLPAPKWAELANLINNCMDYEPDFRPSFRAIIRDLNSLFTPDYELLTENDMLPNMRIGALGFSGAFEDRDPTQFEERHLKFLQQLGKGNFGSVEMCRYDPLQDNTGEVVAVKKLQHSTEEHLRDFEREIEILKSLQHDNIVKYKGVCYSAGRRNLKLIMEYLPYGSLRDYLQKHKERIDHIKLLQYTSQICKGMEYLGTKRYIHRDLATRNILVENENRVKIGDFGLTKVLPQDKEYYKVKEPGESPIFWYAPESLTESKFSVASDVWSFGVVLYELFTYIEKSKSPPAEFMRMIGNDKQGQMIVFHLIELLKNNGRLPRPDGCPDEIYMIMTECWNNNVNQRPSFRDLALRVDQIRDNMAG
# Outline: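 GST-tagged recombinant JAK2 pre-incubated 1 h at ambient temperature with compound and GFP-STAT1 peptide in HEPES pH 7.5/MgCl2 buffer, then ATP added for a 1 h reaction with 1% DMSO. TR-FRET read after EDTA and Tb-anti-pSTAT1 (pTyr701) addition; IC50 from 4-parameter fit, converted to pKi by Cheng-Prusoff.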
# Tyk2 = molecular target: T3, Tyk2 (Homo sapiens, UniProt P29597); test: Biochemical Tyk2 kinase assay (LanthaScreen); settings: for Ki: read-out: Tyk 2 (pKi) (converted)
# T3 construct: GST; purchased Life Technologies
# T3 sequence (P29597 whole entry): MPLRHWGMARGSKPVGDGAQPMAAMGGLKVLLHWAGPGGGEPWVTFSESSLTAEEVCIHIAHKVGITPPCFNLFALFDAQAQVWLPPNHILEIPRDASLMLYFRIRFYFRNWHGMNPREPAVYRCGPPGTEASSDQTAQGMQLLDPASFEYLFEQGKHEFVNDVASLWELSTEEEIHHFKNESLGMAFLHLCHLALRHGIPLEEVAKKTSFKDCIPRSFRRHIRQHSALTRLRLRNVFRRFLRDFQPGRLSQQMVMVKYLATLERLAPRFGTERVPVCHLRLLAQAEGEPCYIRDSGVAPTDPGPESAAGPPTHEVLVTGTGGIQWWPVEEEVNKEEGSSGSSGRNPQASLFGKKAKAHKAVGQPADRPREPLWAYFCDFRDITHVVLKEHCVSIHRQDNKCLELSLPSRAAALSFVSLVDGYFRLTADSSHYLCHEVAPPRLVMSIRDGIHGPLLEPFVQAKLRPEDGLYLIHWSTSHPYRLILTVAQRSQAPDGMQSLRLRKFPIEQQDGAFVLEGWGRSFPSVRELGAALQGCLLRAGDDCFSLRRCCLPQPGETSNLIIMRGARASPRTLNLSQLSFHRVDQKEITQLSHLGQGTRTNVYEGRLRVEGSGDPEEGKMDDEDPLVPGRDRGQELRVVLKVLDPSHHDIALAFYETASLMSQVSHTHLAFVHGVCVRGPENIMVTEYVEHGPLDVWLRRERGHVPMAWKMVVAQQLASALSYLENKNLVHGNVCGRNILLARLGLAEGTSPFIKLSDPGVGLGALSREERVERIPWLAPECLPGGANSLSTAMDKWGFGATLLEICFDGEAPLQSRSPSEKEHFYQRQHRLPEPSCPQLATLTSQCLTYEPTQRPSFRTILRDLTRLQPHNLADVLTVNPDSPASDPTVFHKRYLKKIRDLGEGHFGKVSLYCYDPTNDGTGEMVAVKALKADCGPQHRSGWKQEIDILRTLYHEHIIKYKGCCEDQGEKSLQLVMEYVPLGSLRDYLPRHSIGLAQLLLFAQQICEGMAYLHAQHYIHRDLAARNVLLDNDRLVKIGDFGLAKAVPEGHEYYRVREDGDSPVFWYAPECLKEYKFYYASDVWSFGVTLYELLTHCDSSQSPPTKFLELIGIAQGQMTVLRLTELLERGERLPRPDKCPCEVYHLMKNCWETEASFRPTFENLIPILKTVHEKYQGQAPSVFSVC
# Outline: as §1
# [1] = test system: IL-2 stimulated pSTAT5 in Tall-1 T cells; test: Cellular JAK3 potency assay: inhibition of IL-2 stimulated pSTAT5 in Tall-1 T cells; assay type: cell-based, human; settings: for IC50: Homo sapiens, TALL-1, IL-2 stimulated pSTAT5, Tall-1 T cells, read-out: Tall-1 (pIC50) (converted); for Tall-1 (pIC50): IL-2 stimulated pSTAT5, Tall-1 T cells
# Outline: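 Tall-1 human T cells (45,000/well) in phenol red-free DMEM with 10% FBS were preincubated with compound 1 h at 37 °C, then stimulated with IL-2 (final 300 ng/ml) for 30 min. Lysate pSTAT5 read by AlphaLisa; IC50 from inhibition curves, reported as pIC50 (mean±SD).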
# JAK3 = molecular target: T4, JAK3 (Homo sapiens, UniProt P52333); test: Biochemical JAK3 kinase assay (LanthaScreen); set-up: GST; purchased Life Technologies; settings: for Ki: read-out: JAK 3 (pKi) (converted); for JAK3 (pKi)-JAK1 (pKi): selectivity JAK3 over JAK1, difference of pKi
# T4 sequence (P52333 1-1124): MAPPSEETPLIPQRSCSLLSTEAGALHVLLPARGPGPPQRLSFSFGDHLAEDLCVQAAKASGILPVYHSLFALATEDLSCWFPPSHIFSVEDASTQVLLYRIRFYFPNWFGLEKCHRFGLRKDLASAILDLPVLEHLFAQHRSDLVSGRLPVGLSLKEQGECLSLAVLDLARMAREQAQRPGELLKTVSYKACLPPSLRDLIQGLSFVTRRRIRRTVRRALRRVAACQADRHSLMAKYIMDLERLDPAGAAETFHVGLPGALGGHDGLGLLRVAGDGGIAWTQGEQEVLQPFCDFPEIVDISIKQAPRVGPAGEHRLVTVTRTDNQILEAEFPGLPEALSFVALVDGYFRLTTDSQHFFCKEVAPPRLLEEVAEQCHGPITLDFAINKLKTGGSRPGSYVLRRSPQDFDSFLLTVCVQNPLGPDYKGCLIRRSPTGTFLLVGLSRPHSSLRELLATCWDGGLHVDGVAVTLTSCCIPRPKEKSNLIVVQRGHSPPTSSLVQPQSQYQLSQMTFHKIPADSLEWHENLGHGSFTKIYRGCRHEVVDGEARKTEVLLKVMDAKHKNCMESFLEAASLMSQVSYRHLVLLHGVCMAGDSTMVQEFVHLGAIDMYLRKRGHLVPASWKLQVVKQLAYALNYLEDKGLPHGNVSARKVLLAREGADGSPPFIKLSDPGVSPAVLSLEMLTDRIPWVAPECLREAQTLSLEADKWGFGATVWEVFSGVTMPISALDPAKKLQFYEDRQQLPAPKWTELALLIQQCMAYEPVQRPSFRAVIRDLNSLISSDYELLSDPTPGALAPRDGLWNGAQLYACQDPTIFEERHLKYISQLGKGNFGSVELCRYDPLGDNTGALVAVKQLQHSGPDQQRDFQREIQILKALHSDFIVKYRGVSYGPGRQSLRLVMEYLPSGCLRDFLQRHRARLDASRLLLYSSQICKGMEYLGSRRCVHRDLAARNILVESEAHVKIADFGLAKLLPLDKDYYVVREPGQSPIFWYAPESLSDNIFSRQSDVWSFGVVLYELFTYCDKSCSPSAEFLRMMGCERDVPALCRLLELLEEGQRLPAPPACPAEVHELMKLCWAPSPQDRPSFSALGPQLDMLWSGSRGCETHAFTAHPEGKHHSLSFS
# Outline: as §1
# T1 sequence (P23458 whole entry): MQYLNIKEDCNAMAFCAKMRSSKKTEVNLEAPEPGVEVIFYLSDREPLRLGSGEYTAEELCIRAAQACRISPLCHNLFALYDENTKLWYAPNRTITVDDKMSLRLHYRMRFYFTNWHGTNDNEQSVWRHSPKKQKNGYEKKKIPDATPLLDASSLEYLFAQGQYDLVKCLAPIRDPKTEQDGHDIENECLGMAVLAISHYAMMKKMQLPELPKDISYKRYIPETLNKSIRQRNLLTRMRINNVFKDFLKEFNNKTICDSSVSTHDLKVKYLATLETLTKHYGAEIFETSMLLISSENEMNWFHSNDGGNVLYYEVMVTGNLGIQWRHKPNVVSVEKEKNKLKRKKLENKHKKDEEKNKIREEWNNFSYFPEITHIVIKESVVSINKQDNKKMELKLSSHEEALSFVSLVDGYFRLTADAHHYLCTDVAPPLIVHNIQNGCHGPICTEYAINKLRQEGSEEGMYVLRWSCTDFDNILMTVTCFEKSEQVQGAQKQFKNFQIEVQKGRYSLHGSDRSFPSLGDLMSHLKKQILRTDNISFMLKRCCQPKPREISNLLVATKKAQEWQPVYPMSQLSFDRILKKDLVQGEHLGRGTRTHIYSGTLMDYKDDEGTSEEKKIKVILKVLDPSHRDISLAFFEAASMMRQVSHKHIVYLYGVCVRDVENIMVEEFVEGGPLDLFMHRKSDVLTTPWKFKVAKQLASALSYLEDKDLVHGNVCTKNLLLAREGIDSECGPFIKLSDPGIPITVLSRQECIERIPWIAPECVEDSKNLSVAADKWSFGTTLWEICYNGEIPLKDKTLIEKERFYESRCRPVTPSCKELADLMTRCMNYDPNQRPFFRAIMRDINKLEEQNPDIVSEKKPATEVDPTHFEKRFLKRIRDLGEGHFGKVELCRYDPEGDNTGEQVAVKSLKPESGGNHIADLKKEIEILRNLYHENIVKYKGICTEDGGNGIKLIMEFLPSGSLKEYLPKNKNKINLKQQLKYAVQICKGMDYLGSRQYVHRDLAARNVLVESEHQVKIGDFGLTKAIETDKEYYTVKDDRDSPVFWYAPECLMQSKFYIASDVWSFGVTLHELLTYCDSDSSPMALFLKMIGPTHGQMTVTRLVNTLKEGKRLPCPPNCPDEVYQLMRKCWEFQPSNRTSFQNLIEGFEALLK
Structure (SMILES),Ki (JAK1) [nM],Ki (JAK2) [nM],Ki (Tyk2) [nM],IC50 [1] [nM],Ki (JAK3) [nM],JAK3 (pKi)-JAK1 (pKi) (JAK3),JAK 1 (pKi) (JAK1),JAK 2 (pKi) (JAK2),Tyk 2 (pKi) (Tyk2),Tall-1 (pIC50) [1],JAK 3 (pKi) (JAK3)
C=CC(=O)N1CCC(C)(Oc2cc(-c3ccc(O)cc3)cc3[nH]ncc23)CC1 [Compound 6-3],> 100,10 to 100,> 100,< 31.6,0.1 to 1,A (a value of 3 or above),–,–,–,–,–
CN(C)C/C=C/C(=O)N1CCC(C)(Oc2cc(-c3ccc(O)c(Cl)c3)cc3[nH]ncc23)CC1 [Compound 6-4],> 100,10 to 100,> 100,31.6 to 200,< 0.1,A (a value of 3 or above),–,–,–,–,–
CN(C)C/C=C/C(=O)N1CCC(C)(Oc2cc(-c3ccc(O)c(F)c3)cc3[nH]ncc23)CC1 [Compound 6-6],> 100,10 to 100,> 100,< 31.6,0.1 to 1,A (a value of 3 or above),–,–,–,–,–
C=CC(=O)N1CCC(Oc2cc(-c3ccc(O)c(Cl)c3)cc3[nH]ncc23)CC1 [Compound 6-13],–,–,–,–,–,B (a value of 2.3 to 3),E (a pKi value of 7 or below (Ki of 100 nM or above)),D (a pKi value between 7 and 8 (Ki between 100 nM and 10 nM)),E (a pKi value of 7 or below (Ki of 100 nM or above)),A (a pIC50 value≥7.5 (IC50≤32 nM)),B (a pKi value between 9 and 10 (Ki between 1 nM and 0.1 nM))
C=CC(=O)N1CCC(Oc2nc(-c3ccc(O)cc3)cc3[nH]ncc23)CC1 [Compound 6-15],> 100,10 to 100,> 100,31.6 to 200,0.1 to 1,A (a value of 3 or above),–,–,–,–,–
C=CC(=O)N1CCC(Oc2nc(-c3ccc(O)c(F)c3)cc3[nH]ncc23)CC1 [Compound 6-16],> 100,10 to 100,> 100,31.6 to 200,0.1 to 1,A (a value of 3 or above),–,–,–,–,–
C=CC(=O)N1CCC(Oc2cc(-c3ccc(O)c(Cl)c3)nc3[nH]ncc23)CC1 [Compound 6-17],> 100,> 100,> 100,31.6 to 200,< 0.1,A (a value of 3 or above),–,–,–,–,–
C=CC(=O)N1CCC(Oc2cc(-c3ccc(O)c(F)c3)nc3[nH]ncc23)CC1 [Compound 6-18],> 100,> 100,> 100,31.6 to 200,< 0.1,A (a value of 3 or above),–,–,–,–,–
CN(C)C/C=C/C(=O)N1CCC(Oc2cc(-c3ccc(O)c(F)c3)cc3[nH]ncc23)CC1 [Compound 6-20],10 to 100,1 to 10,> 100,31.6 to 200,0.1 to 1,B (a value of 2.3 to 3),–,–,–,–,–
C=CC(=O)N1CCC(Oc2nc(-c3ccc(O)c(Cl)c3)cc3[nH]ncc23)CC1 [Compound 6-21],–,–,–,–,–,B (a value of 2.3 to 3),D (a pKi value between 7 and 8 (Ki between 100 nM and 10 nM)),D (a pKi value between 7 and 8 (Ki between 100 nM and 10 nM)),E (a pKi value of 7 or below (Ki of 100 nM or above)),B (a pIC50 value between 6.7 (included) and 7.5 (IC50 between 200 nM and 32 nM)),B (a pKi value between 9 and 10 (Ki between 1 nM and 0.1 nM))
C=CC(=O)N1CCC(C)(Nc2cc(-c3ccc(O)cc3)cc3[nH]ncc23)CC1 [Compound 7-2],–,–,–,–,–,A (a value of 3 or above),E (a pKi value of 7 or below (Ki of 100 nM or above)),D (a pKi value between 7 and 8 (Ki between 100 nM and 10 nM)),E (a pKi value of 7 or below (Ki of 100 nM or above)),A (a pIC50 value≥7.5 (IC50≤32 nM)),B (a pKi value between 9 and 10 (Ki between 1 nM and 0.1 nM))
C=CC(=O)N1CCC(N(C)c2cc(-c3ccc(O)cc3)cc3[nH]ncc23)CC1 [Compound 7-3],–,–,–,–,–,A (a value of 3 or above),E (a pKi value of 7 or below (Ki of 100 nM or above)),E (a pKi value of 7 or below (Ki of 100 nM or above)),E (a pKi value of 7 or below (Ki of 100 nM or above)),B (a pIC50 value between 6.7 (included) and 7.5 (IC50 between 200 nM and 32 nM)),B (a pKi value between 9 and 10 (Ki between 1 nM and 0.1 nM))
C=CC(=O)N1CCC(Nc2cc(-c3ccc(O)cc3)cc3[nH]ncc23)CC1 [Compound 7-4],10 to 100,1 to 10,> 100,< 31.6,0.1 to 1,B (a value of 2.3 to 3),–,–,–,–,–
C=CC(=O)N1CCC(N(C)c2cc(-c3ccc(O)c(Cl)c3)cc3[nH]ncc23)CC1 [Compound 7-7],–,–,–,–,–,A (a value of 3 or above),E (a pKi value of 7 or below (Ki of 100 nM or above)),D (a pKi value between 7 and 8 (Ki between 100 nM and 10 nM)),E (a pKi value of 7 or below (Ki of 100 nM or above)),B (a pIC50 value between 6.7 (included) and 7.5 (IC50 between 200 nM and 32 nM)),B (a pKi value between 9 and 10 (Ki between 1 nM and 0.1 nM))
CN(C)C/C=C/C(=O)N1CCC(C)(Nc2cc(-c3ccc(O)c(Cl)c3)cc3[nH]ncc23)CC1 [Compound 7-8],–,–,–,–,–,A (a value of 3 or above),E (a pKi value of 7 or below (Ki of 100 nM or above)),E (a pKi value of 7 or below (Ki of 100 nM or above)),E (a pKi value of 7 or below (Ki of 100 nM or above)),B (a pIC50 value between 6.7 (included) and 7.5 (IC50 between 200 nM and 32 nM)),A (a pKi value≥10 (Ki≤0.1 nM))
C=CC(=O)N1CCC(N(C)c2cc(-c3ccc(O)c(F)c3)cc3[nH]ncc23)CC1 [Compound 7-9],> 100,10 to 100,> 100,< 31.6,< 0.1,A (a value of 3 or above),–,–,–,–,–
C=CC(=O)N1CCC(N(C)c2cc(-c3ccc(O)c(F)c3)cc3[nH]ncc23)CC1 [Compound 7-10],–,–,–,–,–,A (a value of 3 or above),E (a pKi value of 7 or below (Ki of 100 nM or above)),D (a pKi value between 7 and 8 (Ki between 100 nM and 10 nM)),E (a pKi value of 7 or below (Ki of 100 nM or above)),B (a pIC50 value between 6.7 (included) and 7.5 (IC50 between 200 nM and 32 nM)),B (a pKi value between 9 and 10 (Ki between 1 nM and 0.1 nM))
C=CC(=O)N1CCC(C)(Nc2cc(-c3ccc(O)c(Cl)c3)cc3[nH]ncc23)CC1 [Compound 7-11],–,–,–,–,–,A (a value of 3 or above),E (a pKi value of 7 or below (Ki of 100 nM or above)),D (a pKi value between 7 and 8 (Ki between 100 nM and 10 nM)),E (a pKi value of 7 or below (Ki of 100 nM or above)),A (a pIC50 value≥7.5 (IC50≤32 nM)),A (a pKi value≥10 (Ki≤0.1 nM))
